Data reported in ChEMBL document CHEMBL5608257, “Structure-Based Optimization of a Series of Covalent, Cell Active Bfl-1 Inhibitors” (J Med Chem, 2024).

Columns and labels:
[1] = biological target: T1, Bcl-2-related protein A1 (Homo sapiens, UniProt Q16548); assay: Inhibition of N-terminal His6-tagged recombinant Bfl-1 (1 to 151 residues)(unknown origin) extracted from Escherichia coli BL21-Gold (DE3) using HyLite Fluor 647-labeled Bim peptide as substrate incubated for 120 mins by TR-FRET assay
T1 sequence (Q16548 whole entry): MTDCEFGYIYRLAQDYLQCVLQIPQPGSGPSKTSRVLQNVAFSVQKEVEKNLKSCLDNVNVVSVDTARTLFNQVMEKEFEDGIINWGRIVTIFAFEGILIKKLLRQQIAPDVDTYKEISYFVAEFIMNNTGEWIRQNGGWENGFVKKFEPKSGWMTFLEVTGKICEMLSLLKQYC

[2] = biological target: T1, Bcl-2-related protein A1; assay: Inhibition of Bfl-1 in human SU-DHL-1 cells assessed as caspase-3/7 activation measured after 6 hrs by UPLC-MRM MS analysis; type: cell-based
[3] = biological target: Induced myeloid leukemia cell differentiation protein Mcl-1 (Homo sapiens, UniProt Q07820); assay: Inhibition of Mcl-1 (unknown origin)
Sequence of Induced myeloid leukemia cell differentiation protein Mcl-1 (Q07820 whole entry): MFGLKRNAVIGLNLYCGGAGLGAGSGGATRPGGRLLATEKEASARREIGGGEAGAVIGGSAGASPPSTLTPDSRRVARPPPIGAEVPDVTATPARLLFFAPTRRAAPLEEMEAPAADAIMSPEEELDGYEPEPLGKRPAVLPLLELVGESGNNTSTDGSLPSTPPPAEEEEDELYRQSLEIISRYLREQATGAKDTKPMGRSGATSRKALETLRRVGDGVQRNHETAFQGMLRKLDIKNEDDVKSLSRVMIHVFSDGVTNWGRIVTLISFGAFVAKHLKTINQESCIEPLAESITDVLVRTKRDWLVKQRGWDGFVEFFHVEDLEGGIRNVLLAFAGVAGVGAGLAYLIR

SMILES | IC50 [1] [µM] | EC50 [2] [µM] | IC50 [3] [µM]
C=CC(=O)N(Cc1ccc(Cl)cc1)c1ccc(O[C@@H]2CC[C@@H](N)C2)cc1 | 0.34 |  | 
C=CC(=O)N(Cc1ccc(Cl)cc1)c1ccc(F)cc1 | 5.1 |  | 
C=CC(=O)N(Cc1ccc(OC)cc1)c1ccccc1 | > 100 |  | 
C=CC(=O)N(Cc1ccc(OC)cc1)c1ccccc1Cl | 29 |  | 
C=CC(=O)N(Cc1ccc(Cl)cc1)c1ccc(OC)cc1 | 9.8 |  | 
C=CC(=O)N(c1ccc(O[C@@H]2CC[C@@H](N)C2)cc1)[C@@H](C)c1ccc(C(F)(F)F)c(C#N)c1 | 0.022 | 0.37 | > 100
C=CC(=O)N(Cc1ccc(Cl)cc1)c1ccc(O[C@H]2CC[C@H](N)C2)cc1 | 5.1 |  | 
C=CC(=O)N(c1ccc(O[C@@H]2CC[C@@H](N)C2)cc1)[C@H](C)c1ccc(C(F)(F)F)c(C#N)c1 | 1.6 | 6.9 | 
C=CC(=O)N(Cc1ccc(OC)cc1)c1ccc(Cl)cc1 | 19 |  | 
C=CC(=O)N(Cc1ccc(Cl)cc1)c1ccc(O[C@@H]2CC[C@@H](N)C2)cc1 (racemic) | 0.45 | 7.4 | 
C=CC(=O)N(Cc1ccc(C#N)c(Cl)c1)c1ccc(O[C@@H]2CC[C@@H](N)C2)cc1 (racemic) | 0.55 |  | 
C=CC(=O)N(Cc1ccc(Cl)cc1)c1ccc(O[C@@H]2CC[C@@H](NC(C)=O)C2)cc1 (racemic) | 0.46 |  | 
C=CC(=O)N(Cc1ccc(Cl)c(C#N)c1)c1ccc(O[C@@H]2CC[C@@H](N)C2)cc1 (racemic) | 0.35 | 3.7 | 
C=CC(=O)N(Cc1ccc(Cl)cc1)c1ccc(O[C@@H]2CC[C@@H](NC(=O)NC)C2)cc1 (racemic) | 0.36 |  | 
C=CC(=O)N(Cc1ccc(C(F)(F)F)c(C#N)c1)c1ccc(O[C@@H]2CC[C@@H](N)C2)cc1 (racemic) | 0.3 | 1.8 | 
C=CC(=O)N(Cc1ccc(Cl)cc1)c1ccc(O[C@@H]2CC[C@@H](NC)C2)cc1 (racemic) | 0.38 |  | 
C=CC(=O)N(Cc1ccc(Cl)cc1)c1ccc(O[C@@H]2CC[C@@H](N(C)C)C2)cc1 (racemic) | 0.44 |  | 
C=CC(=O)N(Cc1ccc(Cl)cc1)c1ccc(O[C@@H]2CC[C@@H](N(C)C(C)=O)C2)cc1 (racemic) | 22 |  | 
C=CC(=O)N(Cc1ccc(C(F)(F)F)cc1)c1ccc(O[C@@H]2CC[C@@H](N)C2)cc1 (racemic) | 0.72 | 2.6 | 
C=CC(=O)N(Cc1ccc(Cl)cc1)c1ccc(O[C@H]2CC[C@@H](N)C2)cc1 (racemic) | 42 |  | 
